Test results as given in PMC9241942 (Microbiology Spectrum, 2022).

Key:
[1] = Fecal vancomycin levels in original clinical stool samples of healthy volunteers, HPLC-PDA at 205 nm; format: in vivo, human; conditions: for Vancomycin concn, Aliquot 3 / Vancomycin concn, Aliquot 2: original stool
Description: (§1) An aliquot of stool and 1 mL of extraction solvent (acetonitrile and water, 10:90 [vol/vol], 0.1% TFA) was added into 2-mL centrifuge tube and shaken (Vortex-Genie 2 Shaker, Scientific Industries, USA) for 10 s, ultrasonicated for 5 min (Multool ultrasonic cleaner, Model: TH-030A), and centrifuged at 10,000 g for 3 min (Centrifuge 5804 R, Eppendorf). The supernatant was collected and diluted by 10-fold using the extraction solvent and was stored at −80°C prior to HPLC analysis.
(§2) The mobile phase consisted of a mixture of acetonitrile and water, (10:90 [v:v], 0.1% TFA). The flow rate and the temperature of column oven were set at 0.3 mL/min and 40°C, respectively.
(§3) Differences in concentrations were compared by RSD.

[2] = Fecal vancomycin levels in lyophilized clinical stool samples, HPLC, with water correction; format: in vivo, human
Description: as §1, §2, §3

[3] = Vancomycin stability in clinical stool samples over time (inter-day); format: in vitro ADME, human; conditions: for Day 0, vancomycin concn: first assay; for Day 0, vancomycin concn / Day 48, vancomycin concn: Mean ± SD, identical aliquots n = 3, SD; for Day 48, vancomycin concn: second assay after storage
Description: as §1, §2, §3

[4] = Comparison with orthophosphoric acid-based extraction method (Berthoin et al. 2009), total fecal vancomycin by HPLC; format: in vivo, human
Description: Briefly, six samples were chosen with two aliquots were prepared for each sample. The aliquots were mixed with 971 μL of water and 29 μL of 85% orthophosphoric acid according to the composition of orthophosphoric acid-based extraction solvent developed by Berthoin et al. (2009) ([17]).

[5] = cited from earlier work
Excerpt: The goal of the human microbiome project (HMP) is to characterize the human microbiome and analyze its role in health and disease ([1]). The HMP has advanced science on the systems biology of the gut microbiome, the most diverse and abundant microbiome in the human body. By far, the largest contributor to immediate changes in the human gut microbiome are broad spectrum antimicrobials that are excreted via the gastrointestinal tract. To be able to properly study the effect of antimicrobials on the gut microbiome, pharmacokinetic studies using validated assays in the correct biologic matrix will ... || During the phase I clinical trial mentioned above, the pharmacokinetics of ibezapolstat was evaluated using a commercial laboratory. They required the entire stool in order to homogenize the sample for accurate pharmacokinetics results as the heterogeneity of antibiotics in stool samples has not been studied. This differs from blood, urine, or other matrices in which an almost constant supply is present. However, as bowl movements only occur once per day or less, use of an entire sample for pharmacokinetic analyses excludes other microbiome evaluations from that particular day or time-period. ...

[6] = cited from earlier work; remark: listed apart in the source
Excerpt: The goal of the human microbiome project (HMP) is to characterize the human microbiome and analyze its role in health and disease ([1]). The HMP has advanced science on the systems biology of the gut microbiome, the most diverse and abundant microbiome in the human body. By far, the largest contributor to immediate changes in the human gut microbiome are broad spectrum antimicrobials that are excreted via the gastrointestinal tract. […] Moreover, the quantitative range of our new method ( ...

CN[C@H](CC(C)C)C(=O)N[C@H]1C(=O)N[C@@H](CC(N)=O)C(=O)N[C@H]2C(=O)N[C@H]3C(=O)N[C@H](C(=O)N[C@H](C(=O)O)c4cc(O)cc(O)c4-c4cc3ccc4O)[C@H](O)c3ccc(c(Cl)c3)Oc3cc2cc(c3O[C@@H]2O[C@H](CO)[C@@H](O)[C@H](O)[C@H]2O[C@H]2C[C@](C)(N)[C@H](O)[C@H](C)O2)Oc2ccc(cc2Cl)[C@H]1O [vancomycin]
persistence of vancomycin in stool after end of dosing (in words) ([1]; healthy volunteers, oral 125 mg 4 times daily for 10 days): persists for several days following the end of the 10-day dosing regimen | vancomycin concentration in the diluted fecal extract solution ([1]; original clinical sample 9, fecal extract diluted by 10-fold, 205 nm): 20.1 µg/mL | Vancomycin concn, Aliquot 3 ([1]; sample 5, subject H, day 5, oral 125 mg 4 times daily for 10 days, wet wt 33.0 mg): 259 (33.0) μg/g | Vancomycin concn, Aliquot 2 ([1]; sample 5, subject H, day 5, oral 125 mg 4 times daily for 10 days, wet wt 52.9 mg): 259 (52.9) μg/g | Vancomycin concn, Aliquot 2 ([1]; sample 6, subject E, day 8, oral 125 mg 4 times daily for 10 days, wet wt 40.7 mg): 2033 (40.7) μg/g | Vancomycin concn, Aliquot 3 ([1]; sample 6, subject E, day 8, oral 125 mg 4 times daily for 10 days, wet wt 106.5 mg): 1660 (106.5) μg/g | Vancomycin concn, Aliquot 3 ([1]; sample 7, subject F, day 8, oral 125 mg 4 times daily for 10 days, wet wt 48.1 mg): 2057 (48.1) μg/g | Vancomycin concn, Aliquot 2 ([1]; sample 7, subject F, day 8, oral 125 mg 4 times daily for 10 days, wet wt 55.7 mg): 1877 (55.7) μg/g | Vancomycin concn, Aliquot 3 ([1]; sample 8, subject E, day 9, oral 125 mg 4 times daily for 10 days, wet wt 61.5 mg): 1920 (61.5) μg/g | Vancomycin concn, Aliquot 2 ([1]; sample 8, subject E, day 9, oral 125 mg 4 times daily for 10 days, wet wt 91.7 mg): 1868 (91.7) μg/g | Vancomycin concn, Aliquot 2 ([1]; sample 9, subject F, day 9, oral 125 mg 4 times daily for 10 days, wet wt 68.4 mg): 1964 (68.4) μg/g | Vancomycin concn, Aliquot 3 ([1]; sample 9, subject F, day 9, oral 125 mg 4 times daily for 10 days, wet wt 80.2 mg): 1973 (80.2) μg/g | Vancomycin concn, Aliquot 2 ([1]; sample 10, subject D, day 10, oral 125 mg 4 times daily for 10 days, wet wt 34.7 mg): 1947 (34.7) μg/g | Vancomycin concn, Aliquot 3 ([1]; sample 10, subject D, day 10, oral 125 mg 4 times daily for 10 days, wet wt 57.0 mg): 1775 (57.0) μg/g | Vancomycin concn, Aliquot 2 ([1]; sample 11, subject D, day 11, oral 125 mg 4 times daily for 10 days, wet wt 62.7 mg): 1801 (62.7) μg/g | Vancomycin concn, Aliquot 3 ([1]; sample 11, subject D, day 11, oral 125 mg 4 times daily for 10 days, wet wt 64.0 mg): 1891 (64.0) μg/g | Vancomycin concn, Aliquot 2 ([1]; sample 12, subject F, day 11, oral 125 mg 4 times daily for 10 days, wet wt 47 mg): 1920 (47) μg/g | Vancomycin concn, Aliquot 3 ([1]; sample 12, subject F, day 11, oral 125 mg 4 times daily for 10 days, wet wt 54.2 mg): 1488 (54.2) μg/g | Vancomycin concn, Aliquot 2 ([1]; sample 14, subject F, day 12, oral 125 mg 4 times daily for 10 days, wet wt 60.8 mg): 1162 (60.8) μg/g | Vancomycin concn, Aliquot 3 ([1]; sample 14, subject F, day 12, oral 125 mg 4 times daily for 10 days, wet wt 74.6 mg): 1070 (74.6) μg/g | Vancomycin concn, Aliquot 3 ([1]; sample 15, subject D, day 12, oral 125 mg 4 times daily for 10 days, wet wt 59.4 mg): 1200 (59.4) μg/g | Vancomycin concn, Aliquot 2 ([1]; sample 15, subject D, day 12, oral 125 mg 4 times daily for 10 days, wet wt 90.1 mg): 1111 (90.1) μg/g | Lyophilized samples, Vanco conc ([2]; sample 6, subject E, day 8, oral 125 mg 4 times daily for 10 days, aliquot 1, wt 31 mg): 9,206 μg/g | Lyophilized samples, Vanco conc ([2]; sample 6, subject E, day 8, oral 125 mg 4 times daily for 10 days, aliquot 2, wt 58.2 mg): 10,109 μg/g | Lyophilized samples, Vanco conc, Mean ([2]; sample 6, subject E, day 8, oral 125 mg 4 times daily for 10 days, mean of 2 aliquots): 9,658 μg/g | Lyophilized samples, Vanco conc ([2]; sample 7, subject F, day 8, oral 125 mg 4 times daily for 10 days, aliquot 1, wt 44.6 mg): 8,614 μg/g | Lyophilized samples, Vanco conc ([2]; sample 7, subject F, day 8, oral 125 mg 4 times daily for 10 days, aliquot 2, wt 28.2 mg): 9,367 μg/g | Lyophilized samples, Vanco conc, Mean ([2]; sample 7, subject F, day 8, oral 125 mg 4 times daily for 10 days, mean of 2 aliquots): 8,991 μg/g | Lyophilized samples, Vanco conc ([2]; sample 8, subject E, day 9, oral 125 mg 4 times daily for 10 days, aliquot 1, wt 28.7 mg): 10,116 μg/g | Lyophilized samples, Vanco conc ([2]; sample 8, subject E, day 9, oral 125 mg 4 times daily for 10 days, aliquot 2, wt 39.4 mg): 9,445 μg/g | Lyophilized samples, Vanco conc, Mean ([2]; sample 8, subject E, day 9, oral 125 mg 4 times daily for 10 days, mean of 2 aliquots): 9,781 μg/g | Lyophilized samples, Vanco conc ([2]; sample 9, subject F, day 9, oral 125 mg 4 times daily for 10 days, aliquot 1, wt 26.7 mg): 9,745 μg/g | Lyophilized samples, Vanco conc ([2]; sample 9, subject F, day 9, oral 125 mg 4 times daily for 10 days, aliquot 2, wt 43.3 mg): 8,981 μg/g | Lyophilized samples, Vanco conc ([2]; sample 9, subject F, day 9, oral 125 mg 4 times daily for 10 days, aliquot 3, wt 60.8 mg): 8,935 μg/g | Lyophilized samples, Vanco conc, Mean ([2]; sample 9, subject F, day 9, oral 125 mg 4 times daily for 10 days, mean of 3 aliquots): 9,220 μg/g | Lyophilized samples, Vanco conc ([2]; sample 10, subject D, day 10, oral 125 mg 4 times daily for 10 days, aliquot 1, wt 41.2 mg): 7,501 μg/g | Lyophilized samples, Vanco conc ([2]; sample 10, subject D, day 10, oral 125 mg 4 times daily for 10 days, aliquot 2, wt 75.3 mg): 6,911 μg/g | Lyophilized samples, Vanco conc, Mean ([2]; sample 10, subject D, day 10, oral 125 mg 4 times daily for 10 days, mean of 2 aliquots): 7,206 μg/g | Lyophilized samples, Vanco conc ([2]; sample 11, subject D, day 11, oral 125 mg 4 times daily for 10 days, aliquot 1, wt 51.9 mg): 7,688 μg/g | Lyophilized samples, Vanco conc ([2]; sample 11, subject D, day 11, oral 125 mg 4 times daily for 10 days, aliquot 2, wt 36.8 mg): 8,166 μg/g | Lyophilized samples, Vanco conc ([2]; sample 11, subject D, day 11, oral 125 mg 4 times daily for 10 days, aliquot 3, wt 30 mg): 6,457 μg/g | Lyophilized samples, Vanco conc, Mean ([2]; sample 11, subject D, day 11, oral 125 mg 4 times daily for 10 days, mean of 3 aliquots): 7,437 μg/g | Lyophilized samples, Vanco conc ([2]; sample 12, subject F, day 11, oral 125 mg 4 times daily for 10 days, aliquot 1, wt 12.7 mg): 9,026 μg/g | Lyophilized samples, Vanco conc ([2]; sample 12, subject F, day 11, oral 125 mg 4 times daily for 10 days, aliquot 2, wt 32.6 mg): 8,563 μg/g | Lyophilized samples, Vanco conc ([2]; sample 12, subject F, day 11, oral 125 mg 4 times daily for 10 days, aliquot 3, wt 49.2 mg): 6,962 μg/g | Lyophilized samples, Vanco conc, Mean ([2]; sample 12, subject F, day 11, oral 125 mg 4 times daily for 10 days, mean of 3 aliquots): 8,184 μg/g | Lyophilized samples, Vanco conc ([2]; sample 14, subject F, day 12, oral 125 mg 4 times daily for 10 days, aliquot 1, wt 19 mg): 6,748 μg/g | Lyophilized samples, Vanco conc ([2]; sample 14, subject F, day 12, oral 125 mg 4 times daily for 10 days, aliquot 2, wt 37.1 mg): 5,810 μg/g | Lyophilized samples, Vanco conc ([2]; sample 14, subject F, day 12, oral 125 mg 4 times daily for 10 days, aliquot 3, wt 56.2 mg): 5,803 μg/g | Lyophilized samples, Vanco conc, Mean ([2]; sample 14, subject F, day 12, oral 125 mg 4 times daily for 10 days, mean of 3 aliquots): 6,120 μg/g | Lyophilized samples, Vanco conc ([2]; sample 15, subject D, day 12, oral 125 mg 4 times daily for 10 days, aliquot 1, wt 41.6 mg): 5,058 μg/g | Lyophilized samples, Vanco conc ([2]; sample 15, subject D, day 12, oral 125 mg 4 times daily for 10 days, aliquot 2, wt 38.5 mg): 4,941 μg/g | Lyophilized samples, Vanco conc ([2]; sample 15, subject D, day 12, oral 125 mg 4 times daily for 10 days, aliquot 3, wt 44.1 mg): 4,921 μg/g | Lyophilized samples, Vanco conc, Mean ([2]; sample 15, subject D, day 12, oral 125 mg 4 times daily for 10 days, mean of 3 aliquots): 4,973 μg/g | Day 0, vancomycin concn ([3]; clinical stool sample 5): 269 ± 3 µg/g | Day 48, vancomycin concn ([3]; clinical stool sample 5): 259 ± 14 µg/g | Day 0, vancomycin concn ([3]; clinical stool sample 9): 1,897 ± 7 μg/g | Day 48, vancomycin concn ([3]; clinical stool sample 9): 1,905 ± 12 μg/g | Day 0, vancomycin concn ([3]; clinical stool sample 14): 1,211 ± 8 μg/g | Day 48, vancomycin concn ([3]; clinical stool sample 14): 1,220 ± 11 μg/g | stability of vancomycin concentrations in stool over time ([3]; clinical stool samples, up to 49 days studied): stable over time up to 49 days | Fecal vancomycin concentration (Mean ± SD), Previous method ([4]; clinical sample 5, two aliquots): 267 ± 45 µg/mL | Fecal vancomycin concentration (Mean ± SD), Previous method ([4]; clinical sample 6, two aliquots): 2,045±100 µg/ml | Fecal vancomycin concentration (Mean ± SD), Previous method ([4]; clinical sample 8, two aliquots): 2,110±23 µg/ml | Fecal vancomycin concentration (Mean ± SD), Previous method ([4]; clinical sample 9, two aliquots): 2,106±33 µg/ml | Fecal vancomycin concentration (Mean ± SD), Previous method ([4]; clinical sample 12, two aliquots): 1,771±11 µg/ml | Fecal vancomycin concentration (Mean ± SD), Previous method ([4]; clinical sample 14, two aliquots): 1,253±47 µg/ml | water solubility (in words) [5]: water-soluble | hydrophilicity (in words) ([5]; general statement of the discussion, no reference given): hydrophilic drug | typical fecal vancomycin level after standard oral vancomycin administration [6]: > 100 µg/mL | absorption from the human gastrointestinal (GI) tract (in words) ([6]; oral, mainly excreted into the stool): absorbed minimally
